Measured values published in patent US20210122724A1, “TETRACARBOXYLIC DIANHYDRIDE, CARBONYL COMPOUND, POLYIMIDE PRECURSOR RESIN, AND POLYIMIDE” (ENEOS Corporation, priority 2018, published 2021).

Experiment: Solubility of tetracarboxylic dianhydride in organic solvent (visual, 50 mg sample)
Type: physicochemical
Procedure: As the samples, the tetracarboxylic dianhydride (exo/exo type BzDA) obtained in Example 2 and the tetracarboxylic dianhydride (endo/endo type BzDA) obtained in Comparative Example 2 were separately used to confirm the solubility of each tetracarboxylic dianhydride in an organic solvent as follows. Specifically, after 50 mg of the sample was added to a screw tube, an organic solvent was added little by little into the screw tube, and the amount of the sample dissolved was visually confirmed. Note that, as the organic solvents, N,N′-dimethylacetamide and N-methyl-2-pyrrolidone were used to confirm the solubility in the solvents.

Row | concentration of solution that can be prepared (solubility) (solvent N,N′-dimethylacetamide) [% by mass] | concentration of solution that can be prepared (solubility) (solvent N-methyl-2-pyrrolidone) [% by mass] | Structure (SMILES)
1 | < 1 | < 3.5 | O=C1OC(=O)C2C3CC(CC3c3ccc(C4CC5CC4C4C(=O)OC(=O)C54)cc3)C12 (stereo not drawn) [endo/endo type BzDA]
2 | ≥ 5 | ≥ 5 | O=C1OC(=O)C2C3CC(CC3c3ccc(C4CC5CC4C4C(=O)OC(=O)C54)cc3)C12 (stereo not drawn) [exo/exo type BzDA, exo,exo-5,5′-(1,4-phenylene)bis(bicyclo[2.2.1]heptane-2,3-exo-dicarboxylic anhydride)]
